Reference: patent US20220054658A1, “CONJUGATES” (Transfection Holdings Limited, priority 2018, published 2022)

Tests used:
B. bovis Texas strain = assay: Short-term uptake test in B. bovis infected RBCs (confocal microscopy); settings: 25 μM, 37° C., 45 min, ~5% PPE
Experimental: The parasite culture was centrifuged and washed once with GIT medium. RBC's were pellet down, and 20 μl infected RBC mixture (10 μl packed infected RBC+10 μl GIT) was prepared. Then, 180 μl GIT medium with compound the compound to be evaluated (final concentration 25 μM for BODIPY derivatives and 100 μM for phiLOV derivatives) or DMSO (0.1%)/PBS control was added. The samples were incubated for 45 min at 37° C. (Samples were stained 1 μg/mL diluted Hoechst 33342 in GIT medium). After incubation, the samples were centrifuged and the pellet was washed with GIT medium (3×). A final solution of 50% haematocrit infected RBC mixture was transferred to slides to be observed by confocal laser microscopy (Nikon A1).
Uptake experiments were performed by incubating the parasite (˜5% Parasitized Erythrocytes (PPE)) with each derivative at 25 μM and 37° C. for 45 min. After incubation, the fluorescence intensities were calculated from confocal microscope images.
The phiLOV double mutant (R475G, K476C) was used to generate derivatives P11, P1, P8, and P3 which were tested for uptake in B. bovis Texas strain using phiLOV as a control. The derivatives and the control were incubated at 100 μM and 37° C. for 45 min. After incubation, the samples were analysed under confocal microscopy using Hoeschst 33342 (Thermofisher) as co-stain.

P. falciparum = assay: Plasmodium falciparum testing: uptake by infected and non-infected red blood cells; assay type: cell-based; settings: 25 μM, 45 minutes, 37° C., synchronised stage and mix-stage cultures
Experimental: Compounds 1, 5, 9, 10 and 11 were tested for uptake in both synchronised stage and mix-stage cultures at 25 μM concentrations.

T. annulata = assay: Theileria annulata testing: uptake; assay type: cell-based; settings: 1 hour, 37° C.
Experimental: T. annulata were cultured using RPMI 1640 with 10% Albumax II (Thermo-Fisher) serum. A standard hemocytometer was used to calculate the concentration of cells in the parent culture. […] For each compound and concentration to be tested, 2 mL of the culture were centrifuged at 1,000 rpm for 5 minutes. The medium was removed before the cells were resuspended in 950 μL of complete medium containing the compound to be tested at the desired concentration. This was prepared from a 100 mM stock solution of compound in DMSO. Once the cells were resuspended they were transferred to a 5 well plate (1 mL capacity per well). They were then incubated for 1 hour at 37° C. in an atmosphere of 5% CO2 in air. After the incubations were complete the contents of each well were transferred to a 10 mL centrifuge tube. Cold RPMI 1640 (Thermofisher) or HBSS added to obtain a volume of 5 mL. The suspension was then centrifuged at 1,000 rpm and at 4° C. for 5 minutes. […] After the final washing the pellet of cells was resuspended in a minimum amount of RPMI 1640 and then spotted onto a glass slide. The slide was then covered with a cover slip and analysed using Olympus BX60 UV microscope system with a Spot RT3 camera and Spot Image software with a FITC fluorescent filter.

SMILES: CC1=CC(C)=[N+]2C1=Cc1ccc(CCCn3cc(CCNC(=O)/C=C/NC(=O)[C@@H]4OC(C)(C)OCC4(C)C)nn3)n1[B-]2(F)F [Compound 1, (R,E)-N-((((3-[4,4-Difluoro-5,7-dimethyl-4-bora-3a,4a-diaza-s-indacene-3-yl]propyl)-1H-1,2,3-triazol-4-yl)ethylamino)-3-oxoprop-1-enyl)-2,2,5,5-tetramethyl-1,3-dioxane-4-carboxamide]
- uptake in RBCs infected with B. bovis (fluorescence intensity from confocal images) (B. bovis Texas strain): highest uptake
- uptake by infected and non-infected red blood cells (P. falciparum): not taken up either by infected nor non-infected red blood cells in every culture
- uptake in T. annulata (T. annulata): very limited uptake
